Source: patent publication US20170114070A1, “INHIBITORS OF THE WNT SIGNALLING PATHWAYS” (Bayer Pharma Aktiengesellschaft, priority 2014, published 2017)

How the values were obtained:
[1] = system: constitutive active Wnt pathway (HCT116 TOPFlash); assay: Cellular reporter assay, HCT116 Super TopFlash (constitutive active Wnt pathway); type: cell-based; details: Homo sapiens, HCT-116; HCT116 stably transfected with Super TopFlash vector; 36 hours incubation; luciferase expression
Protocol: In order to discover and characterize small molecules which inhibit the constitutive active colorectal cancer cell (CRC) Wnt pathway, a cellular reporter assay was employed. The corresponding assay cell was generated by transfection of the colorectal cancer cell line HCT116 (ATCC, #CCL-247) with the Super TopFlash vector (Morin, Science 275, 1997, 1787-1790; Molenaar et al., Cell 86 (3), 1996, 391-399). The HCT116 cell line is cultivated at 37° C. and 5% CO2 in DMEM/F-12 (Life Technologies, #11320-074), supplemented with 2 mM glutamine, 20 mM HEPES, 1.4 mM pyruvate, 0.15% Na-bicarbonate and 10% foetal bovine serum (GIBCO, #10270), this cancer cell line is pathophysiological relevant since it carries a deletion of position S45 in the β-catenin gene, leading to constitutive active Wnt signaling. Stable transfectants were generated by cotransfection with pcDNA3 and selection of stable transfected cells with 1 mg/ml G418.
(§1) In a parallel approach, HCT116 cells were cotransfected with the FOP control vector and pcDNA3. The FOP vector is identical to the TOP construct, but it contains instead of functional TCF elements a randomized, non-functional sequence. For this transfection a stable transfected cell line was generated as well.
(§2) In preparation of the assay, the two cell lines were plated 24 hours before at 10000 cells per well of a 384 micro titre plate (MTP) in 30 μL growth medium. Selective inhibitory activity for small molecules on the mutated Wnt pathway was determined after parallel incubation of both (TOP and FOP) HCT116 reporter cell lines with a compound dilution series from 50 μM to 15 nM in steps of 3.16-fold dilutions in CAFTY buffer (130 mM NaCl, 5 mM KCl, 20 mM HEPES, 1 mM MgCl2, 5 mM NaHCO3, pH 7.4) containing 2 mM Ca^2+ and 0.01% BSA. The compounds were thereby serially prediluted in 100% DMSO and thereafter in addition 50 fold into the CAFTY compound dilution buffer (described above). From this dilution 10 μL were added to the cells in 30 μL growth medium and incubated for 36 hours at 37° C. and 5% CO2. Thereafter luciferase assay buffer (1:1 mixture of luciferase substrate buffer (20 mM Tricine, 2.67 mM MgSO4, 0.1 mM EDTA, 4 mM DTT, 270 μM Coenzyme A, 470 μM Luciferin, 530 μM ATP, ph adjusted to pH 7.8 with a sufficient volume of 5M NaOH) and Triton buffer (30 mL Triton X-100, 115 mL glycerol, 308 mg Dithiothreitol, 4.45 g Na2HPO4.2H2O, 3.03 g TRIS HCl, ad 1 l H20, pH 7.8) was added as equal volume to the compound solution on the cells to determine luciferase expression as a measure of Wnt signaling activity in a luminometer.

[2] = system: HCT116 FOPFlash (FOP control vector, non-functional TCF elements); assay: Cellular control reporter assay, HCT116 FOP control vector; type: cell-based; details: Homo sapiens, HCT-116; HCT116 stably transfected with FOP control vector; 36 hours incubation; luciferase expression; dilution series from 50 μM
Protocol: as §1, §2

Row | Structure (SMILES) | IC50 [1] [µM] | IC50 [2] [µM]
1 | CN1CCN(CC(=O)Nc2cc(C(=O)Nc3ccc(-c4cccnc4F)nn3)ccc2OC(F)(F)F)CC1 [Example 12, N-[6-(2-fluoropyridin-3-yl)pyridazin-3-yl]-3-{[(4-methylpiperazin-1-yl)acetyl]amino}-4-(trifluoromethoxy)benzamide] | 0.12 | ≥ 50
2 | CN1CCN(CC(=O)Nc2cc(C(=O)Nc3cnc(-c4ccncc4)cn3)ccc2OC(F)(F)F)CC1 [Example 28, 3-{[(4-methylpiperazin-1-yl)acetyl]amino}-N-[5-(pyridin-4-yl)pyrazin-2-yl]-4-(trifluoromethoxy)benzamide] | 0.064 | ≥ 50
3 | CN1CCN(CC(=O)Nc2cc(C(=O)Nc3ccc(-c4cccnc4)nn3)ccc2OC(F)(F)F)CC1 [Example 4, 3-{[(4-methylpiperazin-1-yl)acetyl]amino}-N-[6-(pyridin-3-yl)pyridazin-3-yl]-4-(trifluoromethoxy)benzamide] | 0.0175 | ≥ 50
4 | CN1CCN(CC(=O)Nc2cc(C(=O)Nc3cnc(-c4ccnc(N)c4)cn3)ccc2OC(F)(F)F)CC1 [Example 56, N-[5-(2-aminopyridin-4-yl)pyrazin-2-yl]-3-{[(4-methylpiperazin-1-yl)acetyl]amino}-4-(trifluoromethoxy)benzamide] | 2 | ≥ 50
5 | CN1CCN(CC(=O)Nc2cc(C(=O)Nc3cnc(-c4cccc(Cl)c4)cn3)ccc2OC(F)(F)F)CC1 [Example 48, N-[5-(3-chlorophenyl)pyrazin-2-yl]-3-{[(4-methylpiperazin-1-yl)acetyl]amino}-4-(trifluoromethoxy)benzamide] | 0.26 | 7.73
6 | CN1CCN(CC(=O)Nc2cc(C(=O)Nc3ccc(-c4ccccc4)nn3)ccc2OC(F)(F)F)CC1 [Example 9, 3-{[(4-methylpiperazin-1-yl)acetyl]amino}-N-(6-phenylpyridazin-3-yl)-4-(trifluoromethoxy)benzamide] | 0.0297 | ≥ 50
7 | O=C(CN1CCOCC1)Nc1cc(C(=O)Nc2cnc(-c3cncnc3)cn2)ccc1OC1CC1 [Example 27, 4-(cyclopropyloxy)-3-[(morpholin-4-ylacetyl)amino]-N-[5-(pyrimidin-5-yl)pyrazin-2-yl]benzamide] | 16.7 | ≥ 50
8 | Nc1cc(-c2cnc(NC(=O)c3ccc(OC(F)(F)F)c(NC(=O)CN4CCOCC4)c3)cn2)ccn1 [Example 55, N-[5-(2-aminopyridin-4-yl)pyrazin-2-yl]-3-[(morpholin-4-ylacetyl)amino]-4-(trifluoromethoxy)benzamide] | 17.2 | 26.2
9 | Cc1cccc(-c2cnc(NC(=O)c3ccc(OC(F)(F)F)c(NC(=O)CN4CCN(C)CC4)c3)cn2)c1 [Example 32, N-[5-(3-methylphenyl)pyrazin-2-yl]-3-{[(4-methylpiperazin-1-yl)acetyl]amino}-4-(trifluoromethoxy)benzamide] | 16.7 | 40
10 | O=C(CN1C[C@@H]2C[C@H]1CO2)Nc1cc(C(=O)Nc2ccc(-c3ccccc3)nn2)ccc1OC(F)(F)F [Example 8, 3-{[(1S,4S)-2-oxa-5-azabicyclo[2.2.1]hept-5-ylacetyl]amino}-N-(6-phenylpyridazin-3-yl)-4-(trifluoromethoxy)benzamide] | 0.125 | ≥ 50
11 | Cc1cccc(F)c1-c1cnc(NC(=O)c2ccc(OC(F)(F)F)c(NC(=O)CN3CCN(C)CC3)c2)cn1 [Example 29, N-[5-(2-fluoro-6-methylphenyl)pyrazin-2-yl]-3-{[(4-methylpiperazin-1-yl)acetyl]amino}-4-(trifluoromethoxy)benzamide] | 16.7 | ≥ 50
12 | O=C(CN1CCOCC1)Nc1cc(C(=O)Nc2cnc(-c3ccccc3Cl)cn2)ccc1OC(F)(F)F [Example 33, N-[5-(2-chlorophenyl)pyrazin-2-yl]-3-[(morpholin-4-ylacetyl)amino]-4-(trifluoromethoxy)benzamide] | 0.115 | 31.5
13 | CN1CCN(CC(=O)Nc2cc(C(=O)Nc3cnc(-c4ccccn4)cn3)ccc2OC(F)(F)F)CC1 [Example 40, 3-{[(4-methylpiperazin-1-yl)acetyl]amino}-N-[5-(pyridin-2-yl)pyrazin-2-yl]-4-(trifluoromethoxy)benzamide] | 0.153 | ≥ 50
14 | CN1CCN(CC(=O)Nc2cc(C(=O)Nc3cnc(-c4ccccc4)cn3)ccc2OC2CC2)CC1 [Example 21, 4-(cyclopropyloxy)-3-{[(4-methylpiperazin-1-yl)acetyl]amino}-N-(5-phenylpyrazin-2-yl)benzamide] | 0.0168 | 11
15 | O=C(CN1CCOCC1)Nc1cc(C(=O)Nc2cnc(-c3ccccc3)cn2)ccc1OC1CC1 [Example 38, 4-(cyclopropyloxy)-3-[(morpholin-4-ylacetyl)amino]-N-(5-phenylpyrazin-2-yl)benzamide] | 0.123 | ≥ 50
16 | Nc1ncc(-c2ccc(NC(=O)c3ccc(OC(F)(F)F)c(NC(=O)CN4CCOCC4)c3)nn2)cn1 [Example 13, N-[6-(2-aminopyrimidin-5-yl)pyridazin-3-yl]-3-[(morpholin-4-ylacetyl)amino]-4-(trifluoromethoxy)benzamide] | 0.0672 | ≥ 50
17 | O=C(CN1CCOCC1)Nc1cc(C(=O)Nc2cnc(-c3cnccn3)cn2)ccc1OC(F)(F)F [Example 57, N-(2,2′-bipyrazin-5-yl)-3-[(morpholin-4-ylacetyl)amino]-4-(trifluoromethoxy)benzamide] | 2.4 | ≥ 50
18 | O=C(CN1CCOCC1)Nc1cc(C(=O)Nc2ccc(-c3cncnc3)nn2)ccc1OC(F)(F)F [Example 15, 3-[(morpholin-4-ylacetyl)amino]-N-[6-(pyrimidin-5-yl)pyridazin-3-yl]-4-(trifluoromethoxy)benzamide] | 0.636 | ≥ 50
19 | Cc1ccncc1-c1cnc(NC(=O)c2ccc(OC(F)(F)F)c(NC(=O)CN3CCN(C)CC3)c2)cn1 [Example 30, 3-{[(4-methylpiperazin-1-yl)acetyl]amino}-N-[5-(4-methylpyridin-3-yl)pyrazin-2-yl]-4-(trifluoromethoxy)benzamide] | 0.082 | ≥ 50
20 | Nc1ccc(-c2ccc(NC(=O)c3ccc(OC(F)(F)F)c(NC(=O)CN4CCOCC4)c3)nn2)cn1 [Example 16, N-[6-(6-aminopyridin-3-yl)pyridazin-3-yl]-3-[(morpholin-4-ylacetyl)amino]-4-(trifluoromethoxy)benzamide] | 0.0433 | ≥ 50
21 | Cc1cccc(F)c1-c1cnc(NC(=O)c2ccc(OC(F)(F)F)c(NC(=O)CN3CCOCC3)c2)cn1 [Example 58, N-[5-(2-fluoro-6-methylphenyl)pyrazin-2-yl]-3-[(morpholin-4-ylacetyl)amino]-4-(trifluoromethoxy)benzamide] | 2.9 | ≥ 50
22 | O=C(CN1CCOCC1)Nc1cc(C(=O)Nc2cnc(-c3cccc(F)c3)cn2)ccc1OC(F)(F)F [Example 63, N-[5-(3-fluorophenyl)pyrazin-2-yl]-3-[(morpholin-4-ylacetyl)amino]-4-(trifluoromethoxy)benzamide] | 16 | ≥ 50
23 | CN1CCN(CC(=O)Nc2cc(C(=O)Nc3cnc(-c4ccccc4F)cn3)ccc2OC(F)(F)F)CC1 [Example 41, N-[5-(2-fluorophenyl)pyrazin-2-yl]-3-{[(4-methylpiperazin-1-yl)acetyl]amino}-4-(trifluoromethoxy)benzamide] | 0.225 | ≥ 50
24 | O=C(Nc1cnc(-c2ccccc2)cn1)c1ccc(OC(F)(F)F)c(NC(=O)C2(N3CCOCC3)CC2)c1 [Example 20, 3-({[1-(morpholin-4-yl)cyclopropyl]carbonyl}amino)-N-(5-phenylpyrazin-2-yl)-4-(trifluoromethoxy)benzamide] | 0.0144 | ≥ 50
25 | N=S1(=O)CCN(CC(=O)Nc2cc(C(=O)Nc3ccc(-c4ccccc4)nn3)ccc2OC(F)(F)F)CC1 [Example 62] | 12.5 | 25.5
